Measurements taken from article PMC10141580, “Cyclic Dichalcogenides Extend the Reach of Bioreductive Prodrugs to Harness Thiol/Disulfide Oxidoreductases: Applications to seco-Duocarmycins Targeting the Thioredoxin System” (ACS Central Science, 2023).
“And” between values parts separate entries of the source, which are not always exact repeats. Equal values may be shown once. Read-outs that look alike come from different tables or passages of the source.

Tested on: panel of 140 standard cancer cell lines
Experiment: ProliFiler-140 cancer cell line screen (CellTiterGlo, 72 h)
Assay type: cell-based
Conditions: for IC50: Homo sapiens
Protocol: Incubations were performed for 72 h before automated viability readout with CellTiterGlo (Figure 8).
End of Figure S11 (part 5 of 5): ProliFiler-140 cancer cell line screening for cytotoxicity of the prodrugs.
8-data-point dose response curves from CellTiter-Glo® viability readout.
ProliFiler-140 cell line panel part V

`COc1cc2cc(C(=O)N3C[C@@H](CCl)c4c3cc(OC(=O)N3CCN(C(=O)CCC(=O)N5CCN(C)CC5)[C@H]5CSSC[C@H]53)c3ccccc43)[nH]c2c(OC)c1OC` [P-SS66C-CBI-TMI] was tested. Which IC50 (KG-1a, read-out: IC50 [M] (ProliFiler-140), KG-1 a (Blood)) did it give?
Its IC50 is 1.07e-07 M.

And the IC50 (KMS-12-BM, read-out: IC50 [M] (ProliFiler-140), KMS-12-BM (Blood))?
Its IC50 is 3.3e-08 M.

And the IC50 (LN-229, read-out: IC50 [M] (ProliFiler-140), LN229 (Brain))?
Its IC50 is 1.33e-07 M.

What about the IC50 (LNCaP, read-out: IC50 [M] (ProliFiler-140), LnCap (Prostate)) of the same molecule?
Its IC50 is 2.7e-08 M.

What about the IC50 (LoVo, read-out: IC50 [M] (ProliFiler-140), LOVO (Colon)) of the same molecule?
The IC50 was 1.93e-08 M.

And the IC50 (MCF7, MCF-7)?
The IC50 was 3.1e-08 M.

And the IC50 (MCF7, read-out: IC50 [M] (ProliFiler-140), MCF-7 (Breast))?
The IC50 was 3.1e-08 M.

And the IC50 (MDA-MB-231, read-out: IC50 [M] (ProliFiler-140), MDA MB 231 (Breast))?
Its IC50 is 1.36e-07 M.

What about the IC50 (MDA-MB-435, MDA MB 435 (Skin), read-out: IC50 [M] (ProliFiler-140)) of the same molecule?
Its IC50 is 1.3e-07 M.

What about the IC50 (MDA-MB-468, MDA-MB-468) of the same molecule?
The IC50 was 1.9e-08 M.

And the IC50 (MDA-MB-468, read-out: IC50 [M] (ProliFiler-140), MDA-MB-468 (Breast))?
Its IC50 is 1.9e-08 M.

And the IC50 (MEC1, read-out: IC50 [M] (ProliFiler-140), MEC-1 (Blood))?
Its IC50 is 1.1e-08 M.

And the IC50 (MIA PaCa-2, read-out: IC50 [M] (ProliFiler-140), Mia PaCA 2 (Pancreas))?
The IC50 was 8.56e-08 M.

What about the IC50 (MKN-1, read-out: IC50 [M] (ProliFiler-140), MKN-1 (Stomach)) of the same molecule?
Its IC50 is 1.4e-07 M.

And the IC50 (MKN-45, read-out: IC50 [M] (ProliFiler-140), MKN-45 (Stomach))?
The IC50 was 8.2e-08 M.

And the IC50 (MOLM-13, read-out: IC50 [M] (ProliFiler-140), MOLM-13 (Blood))?
The IC50 was 5.3e-09 M.

And the IC50 (MOLT-4, read-out: IC50 [M] (ProliFiler-140), MOLT-4 (Blood))?
Its IC50 is 8.6e-09 M.

What about the IC50 (MV4-11, read-out: IC50 [M] (ProliFiler-140), MV4-11 (Blood)) of the same molecule?
The IC50 was 1.5e-09 M.

And the IC50 (NALM-6, read-out: IC50 [M] (ProliFiler-140), NALM-6 (Blood))?
Its IC50 is 2.47e-09 M.

And the IC50 (NCI-H82, read-out: IC50 [M] (ProliFiler-140), NCI-H82 (Lung))?
The IC50 was 8.8e-08 M.

And the IC50 (NCI-H292, read-out: IC50 [M] (ProliFiler-140), NCI-H292 (Lung))?
Its IC50 is 3.8e-08 M.

What about the IC50 (NCI-H441, read-out: IC50 [M] (ProliFiler-140), NCI-H441 (Lung)) of the same molecule?
Its IC50 is 5.05e-08 M.

And the IC50 (NCI-H460, read-out: IC50 [M] (ProliFiler-140), H460 (Lung))?
The IC50 was 5.5e-09 M.

And the IC50 (NCI-H838, read-out: IC50 [M] (ProliFiler-140), NCI-H838 (Lung))?
The IC50 was 7.4e-08 M.

And the IC50 (NCI-H1048, read-out: IC50 [M] (ProliFiler-140), NCI-H1048 (Lung))?
Its IC50 is 4e-09 M.

What about the IC50 (NCI-H1299, read-out: IC50 [M] (ProliFiler-140), H1299 (Lung)) of the same molecule?
The IC50 was 5.38e-08 M.

What about the IC50 (NCI-H1437, read-out: IC50 [M] (ProliFiler-140), NCI-H1437 (Lung)) of the same molecule?
The IC50 was 1.85e-08 M.

What about the IC50 (NCI-H1563, read-out: IC50 [M] (ProliFiler-140), NCI-H1563 (Lung)) of the same molecule?
Its IC50 is 1.1e-07 M.

What about the IC50 (NCI-H1573, read-out: IC50 [M] (ProliFiler-140), NCI-H1573 (Lung)) of the same molecule?
Its IC50 is 9e-08 M.

And the IC50 (NCI-H1581, read-out: IC50 [M] (ProliFiler-140), NCI-H1581 (Lung))?
Its IC50 is 4.66e-08 M.

And the IC50 (NCI-H1703, read-out: IC50 [M] (ProliFiler-140), NCI-H1703 (Lung))?
Its IC50 is 5.1e-08 M.

And the IC50 (NCI-H1838, read-out: IC50 [M] (ProliFiler-140), NCI-H1838 (Lung))?
The IC50 was 7.7e-08 M.

And the IC50 (NCI-H2009, read-out: IC50 [M] (ProliFiler-140), NCI-H2009 (Lung))?
The IC50 was 2.66e-08 M.

And the IC50 (NCI-H2228, read-out: IC50 [M] (ProliFiler-140), H2228 (Lung))?
Its IC50 is 4.53e-08 M.

What about the IC50 (NCI-H2286, read-out: IC50 [M] (ProliFiler-140), NCI-H2286 (Lung)) of the same molecule?
The IC50 was 1.7e-08 M.

What about the IC50 (NCI-N87, read-out: IC50 [M] (ProliFiler-140), NCI-N87 (Stomach)) of the same molecule?
Its IC50 is 7.5e-08 M.

What about the IC50 (OCI-AML-3, read-out: IC50 [M] (ProliFiler-140), OCI-AML3 (Blood)) of the same molecule?
Its IC50 is 1.3e-08 M.

And the IC50 (OCI-AML-5, read-out: IC50 [M] (ProliFiler-140), OCI-AML5 (Blood))?
Its IC50 is 6e-09 M.

And the IC50 (OCI-LY19, read-out: IC50 [M] (ProliFiler-140), OCI-LY19 (Blood))?
The IC50 was 2.83e-09 M.

What about the IC50 (OPM-2, read-out: IC50 [M] (ProliFiler-140), OPM-2 (Blood)) of the same molecule?
The IC50 was 2.61e-08 M.

And the IC50 (OVCAR-3, read-out: IC50 [M] (ProliFiler-140), OVCAR-3 (Ovary))?
Its IC50 is 7.9e-08 M.

And the IC50 (P31-FUJ, read-out: IC50 [M] (ProliFiler-140), P31/FUJ (Blood))?
The IC50 was 2.3e-08 M.

And the IC50 (PANC-1, read-out: IC50 [M] (ProliFiler-140), PANC-1 (Pancreas))?
The IC50 was 2e-07 M.

What about the IC50 (RL95-2, read-out: IC50 [M] (ProliFiler-140), RL95-2 (Endometrium)) of the same molecule?
Its IC50 is 1.25e-07 M.

What about the IC50 (RPMI-8226, RPMI 8226) of the same molecule?
The IC50 was 1.2e-08 M.

And the IC50 (RPMI-8226, read-out: IC50 [M] (ProliFiler-140), RPMI 8226 (Blood))?
The IC50 was 1.19e-08 M.

What about the IC50 (SAOS-2, read-out: IC50 [M] (ProliFiler-140), Saos-2 EC (Bone)) of the same molecule?
The IC50 was 6.63e-08 M.

What about the IC50 (SCLC-21H, read-out: IC50 [M] (ProliFiler-140), SCLC-21H (Lung)) of the same molecule?
Its IC50 is 2.56e-08 M.

What about the IC50 (SJSA-1, read-out: IC50 [M] (ProliFiler-140), SJSA-1 (Bone)) of the same molecule?
Its IC50 is 9.77e-08 M.

And the IC50 (SK-BR-3, read-out: IC50 [M] (ProliFiler-140), SK-BR-3 (Breast))?
The IC50 was 4.2e-08 M.

And the IC50 (SK-ES1, read-out: IC50 [M] (ProliFiler-140), SK-ES-1 (Bone))?
The IC50 was 2.71e-09 M.

What about the IC50 (SK-LU-1, read-out: IC50 [M] (ProliFiler-140), SK-LU-1 (Lung)) of the same molecule?
The IC50 was 2.3e-08 M.

What about the IC50 (SK-MEL3, read-out: IC50 [M] (ProliFiler-140), SK-MEL-3 (Skin)) of the same molecule?
Its IC50 is 1.6e-07 M.

And the IC50 (SK-N-FI, read-out: IC50 [M] (ProliFiler-140), SK-N-FI (Brain))?
The IC50 was 1.39e-07 M.

And the IC50 (SK-N-MC, read-out: IC50 [M] (ProliFiler-140), SK-N-MC (Brain))?
Its IC50 is 1.6e-09 M.

And the IC50 (SK-N-SH, read-out: IC50 [M] (ProliFiler-140), SK-N-SH (Brain))?
The IC50 was 1.1e-07 M.

What about the IC50 (SK-OV-3, read-out: IC50 [M] (ProliFiler-140), SK-OV3 (Ovary)) of the same molecule?
The IC50 was 3.72e-08 M.

And the IC50 (SNU1, read-out: IC50 [M] (ProliFiler-140), SNU-1 (Stomach))?
The IC50 was 2.3e-08 M.

And the IC50 (SNU-16, read-out: IC50 [M] (ProliFiler-140), SNU-16 (Stomach))?
The IC50 was 6.23e-08 M.

What about the IC50 (SU-DHL-5, read-out: IC50 [M] (ProliFiler-140), SU-DHL-5 (Blood)) of the same molecule?
The IC50 was 2.6e-09 M.

What about the IC50 (SW480, read-out: IC50 [M] (ProliFiler-140), SW480 (Colon)) of the same molecule?
The IC50 was 5.51e-08 M.

And the IC50 (SW948, read-out: IC50 [M] (ProliFiler-140), SW948 (Colon))?
Its IC50 is 1.43e-07 M.

What about the IC50 (SW1783, read-out: IC50 [M] (ProliFiler-140), SW-1783 (Brain)) of the same molecule?
The IC50 was 4.85e-08 M.

What about the IC50 (SW-620, SW620) of the same molecule?
Its IC50 is 1.5e-07 M.

What about the IC50 (SW-620, read-out: IC50 [M] (ProliFiler-140), SW620 (Colon)) of the same molecule?
The IC50 was 1.53e-07 M.

And the IC50 (SiHa, read-out: IC50 [M] (ProliFiler-140), SiHa (Ovary))?
Its IC50 is 1.13e-07 M.

What about the IC50 (T47D, T-47D) of the same molecule?
Its IC50 is 9.8e-08 M.

And the IC50 (T47D, read-out: IC50 [M] (ProliFiler-140), T-47D (Breast))?
Its IC50 is 9.8e-08 M.

What about the IC50 (T98G, read-out: IC50 [M] (ProliFiler-140), T98G (Brain)) of the same molecule?
The IC50 was 8.08e-08 M.

And the IC50 (U2OS, read-out: IC50 [M] (ProliFiler-140), U2OS (Bone))?
The IC50 was 3.19e-08 M.

And the IC50 (U-87 MG, read-out: IC50 [M] (ProliFiler-140), U87MG (Brain))?
Its IC50 is 1.5e-07 M.

And the IC50 (U-118-MG, read-out: IC50 [M] (ProliFiler-140), U118MG (Brain))?
The IC50 was 1.86e-07 M.

What about the IC50 (U-251, read-out: IC50 [M] (ProliFiler-140), U251MG (Brain)) of the same molecule?
The IC50 was 1.2e-07 M.

And the IC50 (U-266, read-out: IC50 [M] (ProliFiler-140), U-266 (Blood))?
Its IC50 is 9.38e-09 M.

What about the IC50 (U-937, read-out: IC50 [M] (ProliFiler-140), U-937 (Blood)) of the same molecule?
Its IC50 is 1.15e-08 M.

What about the IC50 (ZR-75-1, read-out: IC50 [M] (ProliFiler-140), ZR-75-1 (Breast)) of the same molecule?
Its IC50 is 3.07e-07 M.

What about the “Reductive Activation Index” value (Hs 746T (Stomach)) of the same molecule?
The value was 13.

What about the “Reductive Activation Index” value (HuH7 (Liver)) of the same molecule?
Its value is 6.45.

What about the “Reductive Activation Index” value (Hutu 80 (Duodenum)) of the same molecule?
Its value is 5.62 and 5.6.

And the “Reductive Activation Index” value (JIMT-1 (Breast))?
The value was 15.

And the “Reductive Activation Index” value (K562 (Blood))?
The value was 8.6.

And the “Reductive Activation Index” value (KARPAS 299 (Blood))?
Its value is 6.55.

What about the “Reductive Activation Index” value (KG-1 (Blood)) of the same molecule?
The value was 3.24.
